Data from patent US20170007709A1, “GLYCOAMINO ACID AND USE THEREOF” (AJINOMOTO CO., INC., priority 2014, published 2017).

Legend:
[1] = Solubility evaluation in water at 25° C.; format: physicochemical; details: for solubility, amino acid-converted weight concentration / solubility, weight concentration: water, stirred for 2 days
Description: The concentration was measured by HPLC. […] Similarly, the solubility of DOPA and DOPA-Glc was measured. […] Furthermore, the solubility of DOPA and DOPA-Glc was similarly measured using water (0.5 ml) in a thermostatic tank at 25° C. […] Therefore, the samples were diluted, and solubility was measured by HPLC.

[2] = Dissolution rate evaluation in water; format: physicochemical; details: 25 ml stirring water, inside temperature 32° C., n=1
Description: Val, Ile, Leu or glycoamino acid corresponding thereto (Val-Glc, Ile-Glc, Leu-Glc) were each added to stirring water (25 ml, inside temperature 32° C.) in a hot-water bath at 35° C., and the dissolution rate was measured. As compared to Val, Ile and Leu, Val-Glc, Ile-Glc and Leu-Glc were dissolved 4-19 times faster in equal weight and 2-19 times faster in equimolar amount.

[3] = Animal evaluation: blood amino acid concentration after oral administration; format: in vivo; details: male SD rats fasted overnight
Description: Leu, Val, Ile and glycoamino acid corresponding thereto (Leu-Glc, Val-Glc, Ile-Glc) were each dissolved or suspended in distilled water to a given dose and orally administered to male 13-week-old SD rats (Japan Charles River) that was fasted overnight. Blood samples were collected from the rat tail vein before administration and 15 min, 30 min, 60 min, 90 min, 120 min after administration and partly 180 min and 300 min after administration. After separation into plasma, protein elimination and ultrafiltration with 15% sulfosalicylic acid solution was performed. The filtrate was mixed with 0.02 mmol/L hydrochloric acid at 1:1, analyzed by an amino acid analyzer (JEOL Ltd.), and blood amino acid concentration was determined.

[4] = tested on: pronase; assay: Enzyme evaluation: liberation of leucine by pronase; format: in vitro ADME; details: 37° C., 30 min later
Description: Leu-Glc (10 mg) was dissolved in water (1 ml), pronase (0.1% aqueous solution, 100 μl) was added, and the mixture was stirred in a hot-water bath at 37° C. The mixture was diluted 10-fold with 1% aqueous phosphoric acid solution, and analyzed by HPLC.
HPLC analysis conditions were as described below.
column: […] MG (4.6×250 mm, 5 μm) column temperature: 40° C. mobile phase: A: 100 mM KH2PO4, 5 mM sodium 1-octanesulfonate (pH 2.2) B: acetonitrile eluent: A/B=9/1 isocratic flow rate: 1.5 ml/min detection: photodiode array detector measurement wavelength 210 nm injection volume: 10 μL

| SMILES | solubility, amino acid-converted weight concentration ([1]; HPLC) | solubility, weight concentration ([1]; HPLC) | dissolution rate, amino acid (XXX) ([2]; equal weight (Table 3)) | dissolution rate, amino acid (XXX) ([2]; equimolar quantity (Table 2)) | dissolution rate, glycoamino acid (XXX-Glc) ([2]; equal weight (Table 3)) | dissolution rate, glycoamino acid (XXX-Glc) ([2]; equimolar quantity (Table 2)) | other results |
| --- | --- | --- | --- | --- | --- | --- | --- |
| N[C@@H](Cc1ccc(O)c(O)c1)C(=O)O [DOPA, 3,4-dihydroxy-L-phenylalanine, reference compound] | 0.31 g/100 g water | 0.31 g/100 g water | – | – | – | – | – |
| N[C@@H](Cc1ccc(O)c(O)c1)C(=O)N[C@@H]1O[C@H](CO)[C@@H](O)[C@H](O)[C@H]1O [DOPA-Glc, N-(3,4-dihydroxy-L-phenylalanyl)-β-D-glucopyranosylamine] | >215 g/100 g water | >392 g/100 g water | – | – | – | – | solubility as compared to that of DOPA ([1]; water 0.5 ml, samples diluted, HPLC): not less than 690 fold; solubility as compared to the corresponding amino acid ([1]; water 1 ml): not less than 135 times; weight concentration at which still dissolved ([1]; water 1 ml): ≥ 93.8 g/100 g water |
| CC[C@H](C)[C@H](N)C(=O)O [Ile, L-isoleucine, reference compound] | 4.1 g/100 g water | 4.1 g/100 g water | (285 sec) | (280 sec) | – | – | – |
| CC[C@H](C)[C@H](N)C(=O)N[C@@H]1O[C@H](CO)[C@@H](O)[C@H](O)[C@H]1O [Ile-Glc, N-(L-isoleucyl)-β-D-glucopyranosylamine] | 14.7 g/100 g water | 32.8 g/100 g water | – | – | 15 s | 15 s | blood Ile concentration [3]: increased |
| CC(C)C[C@H](N)C(=O)O [Leu, L-leucine, reference compound] | 2.4 g/100 g water | 2.4 g/100 g water | (330 sec) | (191 sec) | – | – | – |
| CC(C)C[C@H](N)C(=O)N[C@@H]1O[C@H](CO)[C@@H](O)[C@H](O)[C@H]1O [Leu-Glc, N-(L-leucyl)-β-D-glucopyranosylamine] | 28.3 g/100 g water | 63 g/100 g water | – | – | 21 s | 21 s | remaining Leu-Glc [4]: almost disappeared; blood Leu concentration [3]: increased |

Second part, led by results:

| solubility, amino acid-converted weight concentration ([1]; HPLC) | solubility, weight concentration ([1]; HPLC) | dissolution rate, amino acid (XXX) ([2]; equal weight (Table 3)) | dissolution rate, amino acid (XXX) ([2]; equimolar quantity (Table 2)) | dissolution rate, glycoamino acid (XXX-Glc) ([2]; equal weight (Table 3)) | dissolution rate, glycoamino acid (XXX-Glc) ([2]; equimolar quantity (Table 2)) | SMILES | other results |
| --- | --- | --- | --- | --- | --- | --- | --- |
| 8.92 g/100 g water | 16.8 g/100 g water | – | – | – | – | N[C@@H](Cc1ccc(O)cc1)C(=O)N[C@@H]1O[C@H](CO)[C@@H](O)[C@H](O)[C@H]1O [Tyr-Glc, N-(L-tyrosyl)-β-D-glucopyranosylamine] | solubility as compared to the corresponding amino acid ([1]; water 1 ml): 178 times |
| 5.8 g/100 g water | 5.8 g/100 g water | (139 sec) | (80 sec) | – | – | CC(C)[C@H](N)C(=O)O [Val, L-valine, reference compound] | – |
| 14.1 g/100 g water | 33.5 g/100 g water | – | – | 33 s | 33 s | CC(C)[C@H](N)C(=O)N[C@@H]1O[C@H](CO)[C@@H](O)[C@H](O)[C@H]1O [Val-Glc, N-(L-valyl)-β-D-glucopyranosylamine] | blood Val concentration [3]: increased |
